# Activity calls are given as the source filed them.
# Tests used:
# T-cell = test: loss of vesicle association with mouse CD8+ T cells – mouse 2C CD8+ T cells, flow cytometry, dose response (AID 485284); format: functional
# [1] = target: T1, Carboxy-terminal domain RNA polymerase II polypeptide A small phosphatase 1 (Homo sapiens, UniProt Q9GZU7); test: CTDSP1 inhibitors, concentration-response, biochemical, absorbance readout, ultra-high-throughput screen actives (AID 540297); format: functional
# T1 sequence (Q9GZU7 whole entry): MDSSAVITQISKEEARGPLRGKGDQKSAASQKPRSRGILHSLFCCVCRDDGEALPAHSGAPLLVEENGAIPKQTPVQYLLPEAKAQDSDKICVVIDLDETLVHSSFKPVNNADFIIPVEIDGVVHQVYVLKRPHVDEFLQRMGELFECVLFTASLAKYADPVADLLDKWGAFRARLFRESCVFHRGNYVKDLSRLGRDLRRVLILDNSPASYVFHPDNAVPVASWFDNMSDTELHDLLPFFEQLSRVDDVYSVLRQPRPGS
# [2] = target: DNA dC->dU-editing enzyme APOBEC-3G (Homo sapiens, UniProt Q9HC16); format: functional;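 note: Dose-response counterscreen measuring inhibition of APOBEC3G DNA deaminase activity, run while confirming APOBEC3A inhibitors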
# [3] = target: T2, Heat shock factor protein 1 (Mus musculus, UniProt P38532); test: decrease of HSF1-responsive luciferase luminescence – cell-based, NIH3T3, dose retest, confirmation (AID 2382); format: functional;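 note: NIH3T3 fibroblasts with HSF1-driven luciferase reporter stressed by proteasome inhibitor MG132; luminescence from HSF1-driven luciferase expression after 8 hours of MG132 stress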
# T2 sequence (P38532 whole entry): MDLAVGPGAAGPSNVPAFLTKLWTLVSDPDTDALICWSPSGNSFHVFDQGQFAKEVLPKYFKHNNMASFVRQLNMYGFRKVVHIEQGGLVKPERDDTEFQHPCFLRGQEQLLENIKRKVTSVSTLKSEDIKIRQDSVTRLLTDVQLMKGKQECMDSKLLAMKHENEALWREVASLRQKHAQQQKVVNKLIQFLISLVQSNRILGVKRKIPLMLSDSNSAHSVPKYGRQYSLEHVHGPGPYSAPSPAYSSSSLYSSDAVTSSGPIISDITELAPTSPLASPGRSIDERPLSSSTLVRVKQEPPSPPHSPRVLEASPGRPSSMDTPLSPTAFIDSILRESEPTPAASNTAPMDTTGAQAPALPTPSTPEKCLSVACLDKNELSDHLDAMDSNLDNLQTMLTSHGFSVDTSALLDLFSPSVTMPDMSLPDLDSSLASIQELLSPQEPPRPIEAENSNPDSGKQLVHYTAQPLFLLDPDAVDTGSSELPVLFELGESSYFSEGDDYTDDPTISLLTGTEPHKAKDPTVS
# [4] = target: DNA dC->dU-editing enzyme APOBEC-3A (Homo sapiens, UniProt P31941); test: Dose Response confirmation of small molecule APOBEC3A DNA Deaminase Inhibitors via a fluorescence-based single-stranded DNA deaminase assay. [Related pubchem assays (depositor defined):AID493011, AID493024]; format: functional
# Hexokinase-1 = Hexokinase-1 (Homo sapiens, UniProt P19367); test: HK1 enzyme activation by HKDC1 hits – biochemical, selectivity assay for HKDC1 activator project, dose response (AID 504762); format: functional
# [5] = target: Luciferin 4-monooxygenase (Photinus pyralis, UniProt P08659); test: inhibition of purified Photinus pyralis luciferase – biochemical, luminescence, dose response (AID 1891)
# [6] = target: T3, Rac GTPase-activating protein 1 (Homo sapiens, UniProt Q9H0H5); test: blockers of MgcRacGAP-driven Rac1 GTP hydrolysis – biochemical, ADP Hunter fluorescence, primary and confirmatory, confirmation (AID 624330); format: functional
# T3 sequence (Q9H0H5 whole entry): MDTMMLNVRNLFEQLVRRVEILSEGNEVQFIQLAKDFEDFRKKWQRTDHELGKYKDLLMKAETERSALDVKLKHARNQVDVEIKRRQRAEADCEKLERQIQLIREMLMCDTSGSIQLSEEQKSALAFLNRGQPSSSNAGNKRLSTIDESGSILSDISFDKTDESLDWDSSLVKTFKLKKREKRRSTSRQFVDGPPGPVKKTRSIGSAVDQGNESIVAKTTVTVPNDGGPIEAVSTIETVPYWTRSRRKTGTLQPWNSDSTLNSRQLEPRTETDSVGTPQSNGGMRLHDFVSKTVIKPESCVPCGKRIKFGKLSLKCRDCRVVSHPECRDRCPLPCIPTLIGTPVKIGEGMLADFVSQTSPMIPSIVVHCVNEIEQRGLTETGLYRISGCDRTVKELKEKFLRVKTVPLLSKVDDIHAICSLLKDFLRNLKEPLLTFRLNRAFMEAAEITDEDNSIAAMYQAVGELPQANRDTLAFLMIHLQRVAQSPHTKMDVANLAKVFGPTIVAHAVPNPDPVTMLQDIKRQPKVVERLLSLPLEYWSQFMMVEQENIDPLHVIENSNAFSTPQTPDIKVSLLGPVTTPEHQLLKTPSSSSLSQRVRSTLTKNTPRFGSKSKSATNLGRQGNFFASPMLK
# [7] = viability loss in HeLa cells – cytotoxicity control for MgcRacGAP inhibitor project, dose response (AID 624300); format: functional
# Hexokinase HKDC1 = Hexokinase HKDC1 (Homo sapiens, UniProt Q2TB90); test: activation of HKDC1 glucose phosphorylation – biochemical, W721R variant, dose response (AID 504730); format: functional
# [8] = Luminescence Cell-Based Dose Confirmation HTS to Identify Inhibitors of Platelet Dense Granule Release. [Related pubchem assays: 1663 (Primary HTS), 1678 (Summary of Project)]; format: functional
# Nonstructural protein 1 = Nonstructural protein 1 (Influenza A virus, UniProt Q194T2); format: functional, Influenza A virus (A/California/07/2009(H1N1))
# [9] = target: T4, Sphingosine 1-phosphate receptor 4 (Homo sapiens, UniProt O95977); test: Late-stage fluorescence dose response cell-based assay to identify agonists of the Sphingosine 1-Phosphate Receptor 4 (S1P4): purchased compounds EC50. [Related pubchem assays (depositor defined):AID1509, AID1523, AID1563, AID1686, AID1701, AID1801]; format: functional
# T4 sequence (O95977 whole entry): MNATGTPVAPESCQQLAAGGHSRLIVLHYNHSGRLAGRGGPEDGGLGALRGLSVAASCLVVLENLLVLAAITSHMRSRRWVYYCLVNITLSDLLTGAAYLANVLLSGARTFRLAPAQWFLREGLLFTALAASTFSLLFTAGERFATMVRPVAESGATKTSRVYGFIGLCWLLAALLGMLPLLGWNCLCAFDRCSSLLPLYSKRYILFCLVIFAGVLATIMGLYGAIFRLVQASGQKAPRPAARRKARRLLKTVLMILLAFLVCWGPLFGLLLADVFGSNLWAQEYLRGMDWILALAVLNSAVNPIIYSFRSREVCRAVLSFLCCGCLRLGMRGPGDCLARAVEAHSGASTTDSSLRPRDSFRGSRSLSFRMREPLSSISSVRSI
# [10] = target: T5, Runt-related transcription factor 1/Core-binding factor subunit beta (Homo sapiens, UniProt Q01196+Q13951); test: disruptors of Runt domain/CBFb-SMMHC interaction – biochemical, FRET, Cerulean-Runt, Venus-CBFb-SMMHC, uHTS, […] (AID 1434); format: protein assay
# [11] = target: T5, Runt-related transcription factor 1/Core-binding factor subunit beta; test: Runt domain/CBFb-SMMHC interaction disruptors – biochemical, TR-FRET (AID 1438); format: protein assay
# HEK293 [12] = test: cells; format: functional, cell-based; details: Homo sapiens
# [13] = target: T6, Calpain-2 catalytic subunit (Sus scrofa, UniProt P43367); test: m-calpain protease blockers, concentration series – biochemical, fluorogenic peptide substrate, dose response (AID 1420); format: functional
# T6 sequence (P43367 whole entry): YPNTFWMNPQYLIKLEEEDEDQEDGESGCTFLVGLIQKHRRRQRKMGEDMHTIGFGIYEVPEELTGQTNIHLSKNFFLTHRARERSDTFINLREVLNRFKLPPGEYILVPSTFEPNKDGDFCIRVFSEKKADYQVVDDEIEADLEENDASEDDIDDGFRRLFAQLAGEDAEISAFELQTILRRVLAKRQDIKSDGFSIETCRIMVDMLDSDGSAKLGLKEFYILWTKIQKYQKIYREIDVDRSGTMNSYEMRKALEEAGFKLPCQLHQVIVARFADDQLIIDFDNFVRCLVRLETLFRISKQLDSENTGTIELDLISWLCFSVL
# HEK293 [14] = test: cells; format: functional, cell-based; details: Homo sapiens; remark: listed apart in the source
# Tumor necrosis factor = Tumor necrosis factor (Homo sapiens, UniProt P01375); test: analog potency on TNFa NF-kB signaling – cell-based, revised, SAR follow-up (AID 2337); format: functional
# HEK293 [15] = test: NOD2 signaling inhibitors in MDP-stimulated cells, cell-based, uHTS, luminescence (AID 2001); format: functional; details: Homo sapiens
# HEK293 [16] = test: cells; details: Homo sapiens
# HEK293 [17] = test: inhibition of NOD1-driven NF-kB reporter – cell-based, luminescence, uHTS, primary screen (AID 1578); format: functional; details: Homo sapiens
# HEK293 [18] = test: cells; format: functional, cell-based; details: Homo sapiens; remark: listed apart in the source
# [19] = target: Nucleotide-binding oligomerization domain-containing protein 1 (Homo sapiens, UniProt Q9Y239); test: blockers of NOD1 pathway activity – revised, SAR follow-up (AID 2333); format: functional
# [20] = target: T7, Nucleotide-binding oligomerization domain-containing protein 2 (Homo sapiens, UniProt Q9HC29); test: inhibition of NOD2-driven NF-kB reporter – cell-based, luminescence, uHTS, HEK293 (AID 1566); format: functional
# [21] = target: T7, Nucleotide-binding oligomerization domain-containing protein 2; test: PubChem AID 2334; format: functional
# [22] = target: T8, G-protein coupled receptor 35 (Homo sapiens, UniProt Q9HC97); test: SAR analysis of Agonists of the GPR35 Receptor using an Image-Based Assay - Set 3. [Related pubchem assays (depositor defined):AID1961, AID1965]; format: functional
# [23] = target: T8, G-protein coupled receptor 35; test: SAR analysis of Antagonists of the GPR35 Receptor using an Image-Based Assay - Set 4. [Related pubchem assays (depositor defined):[…]]; format: functional
# Cannabinoid receptor 1 [24] = target: T9, Cannabinoid receptor 1 (Homo sapiens, UniProt P21554); test: SAR analysis of agonists of the Cannabinoid Receptor 1 using an Image-Based Assay - Set 3. [Related pubchem assays (depositor defined):AID1961, AID1965]; format: functional
# Cannabinoid receptor 2 [25] = target: T10, Cannabinoid receptor 2 (Homo sapiens, UniProt P34972); test: SAR analysis of agonists of the Cannabinoid Receptor 2 using an Image-Based Assay - Set 2. [Related pubchem assays (depositor defined):AID1961, AID1965]; format: functional
# Cannabinoid receptor 2 [26] = target: T10, Cannabinoid receptor 2; test: SAR analysis of antagonists of the Cannabinoid Receptor 2 using an Image-Based Assay - Set 2. [Related pubchem assays (depositor defined):AID1961, AID1965]; format: functional
# [27] = target: G-protein coupled receptor 55 (Homo sapiens, UniProt Q9Y2T6); test: SAR analysis of selective Agonists of GPR55 using an Image-Based Assay - Set 2. [Related pubchem assays (depositor defined):AID1961, AID1965]; format: functional
# Cannabinoid receptor 1 [28] = target: T9, Cannabinoid receptor 1; test: SAR analysis of antagonists of the Cannabinoid Receptor 1 using an Image-Based Assay - Set 3. [Related pubchem assays (depositor defined):AID1961, AID1965]; format: functional
# Troponin, cardiac muscle = Troponin, cardiac muscle (Homo sapiens, UniProt P19429+P45379+P63316); test: Fluorescence-based biochemical high throughput dose response assay for activators of the calcium sensitivity of cardiac Regulated Thin Filaments (RTF). [Related pubchem assays (depositor defined):AID493008, AID493018, AID504382, AID504383]; format: protein-complex assay
smiles,measurement,setting,value
Cc1ccc(C(=O)NCCCN2CCOCC2)c(C)c1,EC50,T-cell,22.5 µM (inactive)
C[N+]1(CC2COC(c3ccco3)O2)CCCCC1 (centres undefined),IC50,[1],3.23 µM (active)
same,IC50,[2],3.34 µM (active)
same,EC50,[3],> 195 µM (not active)
same,IC50,[4],3.15 µM (active)
Cc1nonc1C(=O)N/N=C/c1ccc(O)cc1O,EC50,Hexokinase-1,> 80 µM (inactive)
same,EC50,[5],0.667 µM (active)
same,IC50,[6],69.4 µM (active)
same,CC50,[7],100 µM (active)
same,EC50,Hexokinase HKDC1,> 80 µM (inactive)
same,EC50,[8],0.136 µM (active)
same,IC50,Nonstructural protein 1,4.75 µM (active)
Cc1nn(Cc2ccccc2)c(Cl)c1C(=O)OC(C)C#N (centres undefined),EC50,[9],> 50 µM (inactive)
Cc1ccc(S(=O)(=O)c2c(N)n(Cc3ccco3)c3nc4ccccc4nc23)cc1,IC50,[10],> 100 µM (inactive)
same,IC50,[11],> 100 µM (inactive)
CCc1cc2c3c(c1)C(C)CC(C)(C)N3C(=O)/C2=C1\SC(=O)NC1=O (centres undefined),IC50,HEK293 [12],> 20 µM (inactive)
same,IC50,[13],14.3 µM (not active)
same,IC50,HEK293 [14],16.4 µM (active)
same,IC50,Tumor necrosis factor,8.16 µM (active)
same,IC50,HEK293 [15],10.8 µM (inactive)
same,IC50,HEK293 [16],> 20 µM (inactive)
same,EC50,HEK293 [17],7.46 µM (active)
same,IC50,HEK293 [18],> 20 µM (inactive)
same,IC50,[19],5.04 µM (active)
same,EC50,[20],10.4 µM (active)
same,IC50,[21],5.9 µM (active)
Cc1ccc(Cl)cc1N1CCN(C(=O)c2cc(S(=O)(=O)N(C)C)ccc2N2CCCC2)CC1,EC50,[22],> 32 µM (inactive)
same,IC50,[23],> 32 µM (inactive)
same,EC50,Cannabinoid receptor 1 [24],> 32 µM (inactive)
same,EC50,Cannabinoid receptor 2 [25],> 32 µM (inactive)
same,IC50,Cannabinoid receptor 2 [26],> 32 µM (inactive)
same,EC50,[27],8.84 µM (active)
same,IC50,Cannabinoid receptor 1 [28],> 32 µM (inactive)
O=C(NC1CCCCC1)c1cccc2c1C(=O)c1ccc(N3CCCC3)cc1S2(=O)=O,EC50,"Troponin, cardiac muscle",6.65 µM (active)

# Source: ChEMBL document CHEMBL1201862, “PubChem BioAssay data set” (2004)
